Measurements as given in patent publication US20200165194A1, “ADDITIVE COMPOSITION FOR CULTURE MEDIUM, ADDITIVE COMPOUND FOR CULTURE MEDIUM, AND METHOD FOR CULTURE OF CELLS OR TISSUE USING SAME” (NISSAN CHEMICAL CORPORATION, priority 2017, published 2020).
Where two headings read alike, the source gives them in different places.

Legend:
[1] = tested on: Mouse embryonic fibroblast C3H10T1/2; assay: Fibroblast strain C3H10T1/2, 3D culture, ATP assay (Experimental Example 11); type: cell-based; settings: for proliferation activity (in words): fibroblast under three-dimensional conditions
Experimental: Mouse embryonic fibroblast C3H10T1/2 (manufactured by DS PHARMA BIO MEDICAL) was cultured in a BME medium (manufactured by Thermo Fisher Scientific) containing 10 (v/v) % FBS (manufactured by Corning) and the L-glutamine-penicillin-streptomycin stabilizing solution (manufactured by Sigma-Aldrich). The above-mentioned cells in the logarithmic growth phase were washed with PBS, a 0.25 w/v % trypsin-1 mmol/L EDTA (ethylenediaminetetraacetic acid) solution (manufactured by Wako Pure Chemical Industries, Ltd.) was added, and the cells were detached by incubating at 37° C. for 3 min. Each medium was added, the mixture was centrifuged, and the supernatant was removed.
The aforementioned various cells were suspended in respective deacylated gellan gum-containing or not containing media (deacylated gellan gum concentration was 0.015 w/v %), and seeded in a 96 well low attachment U-bottom plate (manufactured by Corning, #4520, deacylated gellan gum-free medium) at a cell concentration of 700-2000 cells/90 μL/well (3D culture). […] The amount of each compound solution to be added was 10 μL/well. As a control, a DMSO solution dissolved in a medium was added (DMSO final concentration 0.1%). […] When compared with the compound no-addition (control), one showing a value of not more than 119% as -, one showing a value of not less than 120% as ◯, and one showing a value of not less than 150% as ⊚ are shown in the eighteenth table. Unperformed test is left blank.

[2] = tested on: Bone marrow-derived human mesenchymal stem cells (BM-hMSC); assay: Human mesenchymal stem cell-2: 3D, EZSPHERE and 2D culture, ATP assay (Experimental Example 10); type: cell-based; settings: for viability at 1 µM / viability at 5 µM / viability at 10 µM / viability at 20 µM: Homo sapiens, Mesenchymal stem cells, 96 h, BM-hMSC, 4 days, non-addition = 100%, read-out: relative value of RLU (number of viable cells)
Experimental: Bone marrow-derived human mesenchymal stem cells (BM-hMSC, manufactured by PromoCell) were precultured by a single layer culture method (2D) using a mesenchymal stem cell proliferation medium (manufactured by PromoCell). In three-dimensional culture method (3D), hMSC was suspended in a medium composition added with deacylated gellan gum, and seeded in a […] flat bottom Ultr-low Attachment surface plate (manufactured by Corning Incorporated, #3474) at 6000 cells/90 μL/well. In the three-dimensional culture method using EZSPHERE (EZSPHERE), hMSC was suspended in a deacylated gellan gum-free medium composition, and seeded in a 96-well EZSPHERE plate (manufactured by AGC TECHNO GLASS CO., LTD., #4860-900) at 2000 cells/90 μL/well. In 2D, hMSC was suspended in a deacylated gellan gum-free medium composition, and seeded in a 96-well flat bottom plate (manufactured by Corning Incorporated, #3585) at 2000 cells/90 μL/well. […] As a control, DMSO was added at a final concentration of 0.1%.

[3] = tested on: hiPS cell line 253G1; assay: Human pluripotent stem cell (hiPS cell), EZSPHERE plate, ATP assay (Experimental Example 13); type: cell-based; settings: for relative value (%): hiPS 253G1, EZSPHERE plate, 5 μM, 3 days, RLU of DMSO addition = 100%; for proliferation activity (in words): human pluripotent stem cells under three-dimensional conditions
Experimental: hiPS cell line 253G1 (purchased from RIKEN) was cultured on a dish coated with vitronectin VTN-N (manufactured by Thermo Fisher Scientific) using mTeSR1 (registered trade mark) medium (manufactured by STEMCELL Technologies). The above-mentioned cells in the proliferation phase were washed with PBS (manufactured by Fujifilm Corporation Wako Pure Chemical Industries, Ltd.), TrypLE Select (registered trade mark) (manufactured by Thermo Fisher Scientific) was added and the mixture was incubated at 37° C. for 3 min to remove the detaching solution. The medium was added and the cells were detached by pipetting. Thereafter, the supernatant was removed by centrifugation.
The aforementioned cells were suspended in a medium containing 10 μM Y-27632 (manufactured by Fujifilm Corporation Wako Pure Chemical Industries, Ltd.) and seeded in a 96-well EZSPHERE plate (manufactured by AGC TECHNO GLASS CO., LTD., #4860-900) at a cell concentration of 10000 cells/200 μL/well. […] The amount of each compound solution to be added was 2 μL/well. As a control, a DMSO solution dissolved in a medium was added (DMSO final concentration 0.05%). The medium was exchanged by half the volume every day, and each compound solution was also added to make the compound concentration constant.

[4] = tested on: human ovarian cancer cell line SKOV3; assay: Action on SKOV3 cell-2: 3D (deacylated gellan gum) and 2D culture, EGF medium, ATP assay (Experimental Example 3); settings: for viability at 1 µM / viability at 5 µM / viability at 10 µM / viability at 20 µM: Homo sapiens, SK-OV-3, 96 h, 4 days, compound non-addition = 100%
Experimental: According to the method of patent document 1 (WO 2014/017513), a composition of McCoy's 5a medium (manufactured by Sigma-Aldrich) containing 0.015% (w/v) deacylated gellan gum (KELCOGEL CG-LA, manufactured by Sansho Co., Ltd.) and 15% (v/v) FBS, 30 ng/mL human EGF (manufactured by PEPROTECH) was prepared using FCeM-series Preparation Kit (manufactured by Wako Pure Chemical Industries, Ltd.). In a single layer culture, a non-addition medium composition not containing deacylated gellan gum was prepared. Then, human ovarian cancer cell line SKOV3 (manufactured by DS PHARMA BIO MEDICAL) was suspended in the above-mentioned medium composition added with deacylated gellan gum, and dispensed into the wells of a 384 well flat bottom Ultr-low Attachment surface microplate (manufactured by Corning Incorporated, #3827) at 1000 cells/36 μL/well (three-dimensional culture (3D)). In a single layer culture (2D), human ovarian cancer cell line SKOV3 was suspended in the above-mentioned medium composition not containing deacylated gellan gum, and dispensed into the wells of a 384 well flat bottom microplate (manufactured by Corning Incorporated, #3712) at 400 cells/36 μL per well. After dispensing, the compound to be used in the present invention dissolved in dimethyl sulfoxide (DMSO) was added by 4 μL each at a final concentration of 0, 1, 5, 10, 20 μM, and continuously cultured for 4 days. Each plate was cultured in a standing state in a CO2 incubator (37° C., 5% CO2) for 4 days. An ATP reagent (40 μL) (CellTiter-Glo (registered trade mark) Luminescent Cell Viability Assay, manufactured by Promega) was added to the culture medium on day 4, and the mixture was stirred by a plateshaker (manufactured by AS ONE Corporation, Micro plate mixer NS-P) at room temperature for 15 min. The luminescence intensity (RLU value) was measured by EnSpire (manufactured by Perkin Elmer) and the luminescence value of the medium alone was subtracted to measure the number of viable cells.

[5] = three-dimensional cell culture conditions
[6] = read-out: relative value of RLU (number of viable cells), 2D single layer culture
[7] = read-out: relative value of RLU (number of viable cells), 3D culture (deacylated gellan gum)
[8] = single layer culture (2D) of SKOV3 cells
[9] = three-dimensional culture (3D) of SKOV3 cells

| Compound | proliferation activity (in words) [1] | viability at 1 µM ([2]; 2D) | viability at 5 µM ([2]; 2D) | viability at 10 µM ([2]; 2D) | viability at 20 µM ([2]; 2D) | viability at 1 µM ([2]; 3D (deacylated gellan gum)) | viability at 5 µM ([2]; 3D (deacylated gellan gum)) | viability at 10 µM ([2]; 3D (deacylated gellan gum)) | viability at 20 µM ([2]; 3D (deacylated gellan gum)) | viability at 1 µM ([2]; EZSPHERE plate) | viability at 5 µM ([2]; EZSPHERE plate) | viability at 10 µM ([2]; EZSPHERE plate) | viability at 20 µM ([2]; EZSPHERE plate) | proliferation activity (in words) [2, 5] | relative value (%) [3] | proliferation activity (in words) [3] | viability at 1 µM [4, 6] | viability at 5 µM [4, 6] | viability at 10 µM [4, 6] | viability at 20 µM [4, 6] | also measured |
| --- | --- | --- | --- | --- | --- | --- | --- | --- | --- | --- | --- | --- | --- | --- | --- | --- | --- | --- | --- | --- | --- |
| CC/C(=N\NC(=O)CNc1cccc(O)c1)c1ccc(O)c(C)c1O [k-1:D-1] | promoted proliferation activity in fibroblast | 111% | 125% | 112% | 92% | 170% | 640% | 771% | 688% | 169% | 310% | 339% | 275% | promoted proliferation activity of BM-hMSC | 207% | promoted proliferation activity in human pluripotent stem cells | 95% | 102% | 98% | 83% | viability at 1 µM ([1]; Mus musculus, C3H 10T1/2, 96 h, C3H10T1/2, low attachment U-bottom plate, 1 μM, 4 days, read-out: number of viable cells (RLU), relative value to control (100%)): > 120%; viability at 1 µM [4, 7]: 140%; viability at 5 µM [4, 7]: 174%; viability at 10 µM [4, 7]: 168%; viability at 20 µM [4, 7]: 136%; cell proliferation promoting effect (in words) [4, 8]: a favorable cell proliferation promoting effect was not observed; cell proliferation promoting effect (in words) [4, 9]: exhibited cell proliferation promoting effect at a wide concentration range |
| CC/C(=N\NC(=O)C(C)Nc1ccccc1)c1ccc(O)c(C)c1O (centres unmarked) [k-1:B-1] | promoted proliferation activity in fibroblast | 109% | 125% | 158% | 164% | 139% | 298% | 418% | 420% | 154% | 247% | 297% | 278% | promoted proliferation activity of BM-hMSC | 193% | promoted proliferation activity in human pluripotent stem cells | 95% | 99% | 97% | 74% | number of viable cells (RLU), relative value to control (100%) ([1]; C3H10T1/2, low attachment U-bottom plate, 1 μM, 4 days): ⊙; number of viable cells (RLU), relative value to control (100%) ([1]; C3H10T1/2, low attachment U-bottom plate, 5 μM, 4 days): ⊙; proliferation activity (in words) ([2]; two-dimensional cell culture conditions): promoted proliferation activity of hMSC; viability at 1 µM [4, 7]: 127%; viability at 5 µM [4, 7]: 181%; viability at 10 µM [4, 7]: 177%; viability at 20 µM [4, 7]: 158%; cell proliferation promoting effect (in words) [4, 8]: a favorable cell proliferation promoting effect was not observed; cell proliferation promoting effect (in words) [4, 9]: exhibited cell proliferation promoting effect at a wide concentration range |
